A melting point compilation (Tetko et al.; mined from patent text by program, amines drawn as free bases though some values may be those of a salt)

SMILES | melting point
O=C(NC=CC1CC2C=CC1C2)n1cc(F)c(=O)[nH]c1=O (centres undefined) | 130 to 132 °C
CC12CCC(O)CC1CCC1C2CCC2(C)C(=O)CCC12O (centres undefined) | 214 to 217 °C
COc1ccc(-c2nn(C3CCCC3)c3c(F)cccc23)cc1 | 70 to 71 °C
NC1CCN(c2nc(Nc3ccc(F)cc3F)c(C(=O)O)cc2F)C1 (centres undefined) | 249 to 250 °C
CC(=O)N1CCN(c2ccc(Nc3nccc(-c4sc(N)nc4C)n3)cc2)CC1 | 267 to 269 °C
COC(=O)CCC#Cc1cc(Cl)ccc1N | 67 °C
Cc1cc2c(cc1Cl)N(C(=O)Nc1ccncc1)CC2 | > 230 °C
Cn1ncnc1COc1nn2c(-c3ccccc3)nnc2cc1N1CCOCC1 | 210 to 211 °C
COc1cccc(CNC(=O)c2nc3scc(NC(=O)Cc4ccc(C(=O)O)cc4)c3c(=O)[nH]2)c1 | 218 to 219 °C
CCNC(=S)Nc1ccccc1N1CCOCC1 | 118 to 120 °C
N=C(Nc1cccc(Cl)c1)Nc1nc(-c2ccccc2)cs1 | 134 to 135 °C
COc1c(N2C[C@H]3C(CF)C[C@@]3(N)C2)c(F)cc2c(=O)c(C(=O)O)cn([C@@H]3C[C@@H]3F)c12 (some centres undefined) | 122 to 125 °C
OCCNCC(O)c1ccccc1 (centres undefined) | 96 to 98 °C
N#Cc1cnn(-c2ccc(Cl)cc2Cl)c1C(F)(F)F | 83 to 85 °C
CC(C)c1c(CC[C@@H]2C[C@@H](O)CC(=O)O2)n(-c2ccc(F)cc2)c(=O)c2ccccc12 | 192 to 193 °C
CC1=C(C(=O)O)C(c2ccccc2Cl)C(c2cccs2)=NN1 (centres undefined) | 188 °C
COc1ccc(-c2snnc2SC)cc1 | 60.5 to 61 °C
COc1cc(OCCn2cccc2)ccc1/C=C/c1cc(/C=C/c2ccc3cc[nH]c3c2)n[nH]1 | 102 to 110 °C
CC(C)(S)CNC(=O)COCC(=O)O | 81 to 82 °C
CCC(=O)Oc1ccc(S(=O)(=O)N2c3ccccc3-c3ccc(F)cc3C2CC)cc1 (centres undefined) | 111 to 112 °C
CC(=O)OC1CSC(Oc2cncc(-c3cncnc3)c2)C(OC(C)=O)C1OC(C)=O (centres undefined) | 213 to 217 °C
CCCC/C(=C\C=C\C(=O)O)c1cccc(OC)c1 | 77.5 to 78.5 °C
O=C1CCC(N2C(=O)c3ccc(CNC(=O)c4ccco4)cc3C2=O)C(=O)N1 (centres undefined) | 180 to 182 °C

SMILES | melting point
O=C1CCCC2(c3ccccc3)NCCCN12 (centres undefined) | 120 °C
O=C1CC(c2ccccc2)Nc2ccccc2N1Cc1ccccc1 (centres undefined) | 132 to 133 °C
O=Cc1csc(Cc2ccccc2)n1 | 78 °C
CC(C)(C)OC(=O)NCCn1cnc2cnc3ccccc3c21 | 154 to 155 °C
CCn1cc(C(=O)O)c(=O)c2c(C)c(F)c(N3CCC(N)C3)c(F)c21 (centres undefined) | 218 to 220 °C
CC(OC1CCCN(Cc2n[nH]c(=O)[nH]2)C1c1ccccc1)c1cc(C(F)(F)F)cc(C(F)(F)F)c1 (centres undefined) | 214 to 215 °C
CN1C(=O)[C@H](NC(=O)CCc2ccco2)N=C(c2ccccc2)c2ccccc21 | 115 to 118 °C
COc1cc(OCc2ccccn2)ccc1/C=C/c1cc(/C=C/c2cc3ccccc3s2)n[nH]1 | 231 to 232 °C
O=C(O)CCC(O)c1ccc(-c2ccc(Cl)cc2)o1 (centres undefined) | 100 to 101 °C
COc1c(C)c(C)c(OC)c(C(O)(c2ccc(C(C)C)cc2)C2CCN(Cc3ccccc3)CC2)c1C (centres undefined) | 105 to 108 °C
CC(CNS(C)(=O)=O)n1nnc2cc3c(=O)n(C4CC4)nnc3cc2c1=O (centres undefined) | 195 to 197 °C
CC(=O)c1c[nH]c2nccc(OCC3CCCCC3)c12 | > 210 °C
CCCn1c(=S)c2[nH]c(C(C)C)nc2n(CCC)c1=O | 133 to 134 °C
COC(=O)c1ccc(OCCCCCOc2ccc(C(=O)OC)cc2)cc1 | 93 to 95 °C
COC(=O)Cc1cc(OCc2ccccc2)ccc1OC | 74 to 75 °C
O=CN1CCC(C(=O)N2CCN3C(=O)OC(c4ccccc4)(c4ccccc4)C3C2)CC1 (centres undefined) | 133 to 136 °C
CCNC(=O)Nc1cc(C(=O)OC)c(O)c2ncc(Cc3ccc(F)cc3)cc12 | 280 to 282 °C
CC(C)Oc1ccccc1C1(N)C(=O)Nc2ccc(Cl)cc21 (centres undefined) | 193 °C
CN1CC(=O)C(C)(C)CC1=O | 52 to 54 °C
CC1=NC(NCc2ccc(O)c(OC(F)F)c2)C(C)(Cl)C=N1 (centres undefined) | 167 to 168 °C
OCc1cccc(Oc2nn(Cc3ccccc3)c3ccccc23)n1 | 156 to 158 °C
CC(=O)NC(CC=Cc1ccccc1)(COC(C)=O)COC(C)=O | 88 to 90 °C
CN(C)c1ccc2c(c1)C(=O)OC2 | 182 to 185 °C

SMILES | melting point
O=c1ccnc(NCCCN(Cc2ccccc2Cl)c2ccccn2)[nH]1 | 153 to 154 °C
CCC(=O)Nc1c(C(=O)c2ncccc2CO)[nH]c2cc(Cl)ccc12 | 198 to 199 °C
CCOCCNCc1ccc(C(=O)Nc2nc(-c3ccccc3)c(-c3ccc(=O)n(C(C)C)n3)s2)cc1 | 153 to 154 °C
Oc1ccc2nc(-c3ccc4ccccc4c3)oc2c1 | 226 °C
OC1(c2cccn2Cc2ccccc2F)CCN(CCCc2noc3cc(F)ccc23)CC1 | 100 to 104 °C
O=C(Oc1ccccc1OC(=O)c1ccccc1)c1ccccc1 | 75 to 77 °C
CC(=O)NC1CCc2[nH]c3c(F)cc(F)cc3c2C1 (centres undefined) | 179 to 183 °C
CNc1nccc(-c2c(-c3ccc(F)cc3)ccn2C2CCNCC2)n1 | 189 to 191 °C
Cn1nc(-c2ccncc2)nc1-c1ccccn1 | 145 to 146 °C
Cc1nc2c3ccccc3ccn2c1CN1CCN(CCO)CC1 | 115 to 117 °C
CCCc1c(CSc2nnc(SCCCCCCC(=O)O)s2)ccc(C(C)=O)c1O | 63 to 68 °C
CCCCCCCCCCC1CN(C)C(=O)N(O)C1 (centres undefined) | 63 to 64.5 °C
NC(=O)c1ccc(O)c(I)c1 | 90 to 95 °C
C=CCn1nc(-c2sc(C(=O)NC(C)C)nc2-c2ccccc2)ccc1=O | 166 to 167 °C
CC(C)(C(=O)O)c1cccc(OCc2ccccc2)c1 | 114 to 116 °C
C=CCNc1nc(NCc2ccccc2)nc2ccc([N+](=O)[O-])cc12 | 216 to 217 °C
COc1ccc2c(c1)Sc1cc(OC)ccc1N2C | 166 to 167 °C
O=c1c2[nH]nnc2nc2sc(CCc3ccccc3)nn12 | 295 to 296 °C
CC(C)n1c2ccccc2c2cc(NC(=O)c3ccccc3Cl)ccc21 | 195 °C
CO[Si]1(OC)CCCNCCN1 | 61 to 62 °C
COc1ccc(C2COc3cc(O)c(O)cc3C2)cc1OC (centres undefined) | 153 °C
CCCc1c(OCCC(C)Br)ccc(C(C)=O)c1O (centres undefined) | 53 to 55 °C

Continued, values first:

melting point | SMILES
84 to 85 °C | CC1(C)CN(CCN2CCN(c3cccc(Cl)c3)C2=O)C1
103 to 107 °C | CC1OC2c3cc(F)ccc3N3CCC2(CC3)O1 (centres undefined)
225 to 226 °C | CCCCCCCCCCCCc1ccc2nc3c(c(O)c2c1)CCCC3
> 250 °C | CN(C)CCOc1ccc2[nH]c(C(=O)N3CC(CCl)c4c3cc(N)c3ccccc43)cc2c1 (centres undefined)
175 to 176 °C | COc1cc(C)c(O)c(C(=O)NCCc2ccc(N=C(N)c3cccs3)cc2)c1
124 to 127 °C | C=C1C(=CC=C2CCCC3(C)C2CCCC3C(C)CCCC(C)(C)O)CC(O)CC1O (centres undefined)
99 to 101 °C | CC(C)NCC(O)COc1cccnc1[N+](=O)[O-] (centres undefined)
141 to 146 °C | CCCCc1oc2ccccc2c1C(=O)c1ccc(N(CCN(CC)CC)S(=O)(=O)c2cccnc2)cc1
98 to 102 °C | Oc1cc2ccccc2c(Br)c1O
110 to 112 °C | C=CC(O)c1cccc(C=Cc2ccc3ccc(Cl)cc3n2)c1 (centres undefined)
202 to 204 °C | CCCCOc1cc(C(=O)O)cc(N)c1C(=O)c1ccccc1
89 to 92 °C | CCCCCCCCCOc1ccnc(C(=O)O)c1
188 to 192 °C | O=c1ccc2cnc(Nc3ccccc3)nc2n1C1CCCC1
81 to 84 °C | CCOC(=O)C1=C(COCCNC(=O)c2cccnc2)NC(C)=C(C(=O)OC)C1c1ccccc1Cl (centres undefined)
161 to 162 °C | C=C1C(O)C(CO)OC1n1cc(C)c(=O)[nH]c1=O (centres undefined)
57 to 59 °C | COC1=C(OC)C(=O)C2=C(CCC(CCOc3ccc(CO)cc3)CC2)C1=O
112 to 114 °C | CC(=O)SC[C@H](NC(=O)C(C)C)C(=O)NCCSC(=O)C(C)(C)C
194 to 196 °C | COC(=O)c1cc2c(Cl)cc(F)c(-n3c(=O)cc(C(F)(F)F)n(C)c3=O)c2o1

melting point | SMILES
163 to 165 °C | CN(C(=O)c1ccc2nonc2c1)C1CCN(C=O)CC1
102 to 105 °C | CC(C)CC1(C(CCN2C(=O)c3ccccc3C2=O)C(=O)NO)CCN(CCc2ccccc2)C1=O (centres undefined)
57 °C | CCCCCCCCCCCCNC=C1C(=O)ON=C1C
270 to 274 °C | CC(=O)Nc1ccc(S(=O)(=O)NC(=N)c2cnccn2)cc1
158 to 159 °C | CCOC(=O)c1cc2c(C(F)(F)F)cc(CO)cc2n1C
141 to 142 °C | CCC(=CC(CNC(=O)c1cccnc1)=NO)C(C(C)C)[N+](=O)[O-] (centres undefined)
75 to 77 °C | COC(=O)c1cc(C=O)cnc1C(=O)OC
136 to 139 °C | CC(C)c1cc(CC2SCNC2=O)cc(C(C)C)c1O (centres undefined)
113 to 115 °C | CCSC1=NCC(=O)N1c1cc(Cl)ccc1OC
56 to 58 °C | CN(Cc1cc(C(=O)OC(C)(C)C)ccc1[N+](=O)[O-])C(=O)OC(C)(C)C
169 to 170 °C | Cc1ccc(C)c(C2CC(=O)C=C(N)C2)c1 (centres undefined)
178 to 179 °C | NNC(=O)CCSCCOC1OC(CO)C(O)C(O)C1O (centres undefined)
53 to 57 °C | CCC(C)C(NC(=O)N1CCCCCC1)C(=O)NC(Cc1ccc(OCc2ccccc2)cc1)C(=O)OC(C)(C)C (centres undefined)
148 to 149 °C | Cc1c(OCc2ccccc2)ccc2c(=O)cc(N3CCN(c4ccccn4)CC3)oc12
104 to 105 °C | C=CC1CC1(C(C)=O)C(=O)Nc1ccccc1 (centres undefined)
100 to 102 °C | O=C(NCCCCCCOC(=O)N1CCC2(CCCC2)CC1)OC1CCN(C(=O)Oc2ccc3oc4ccccc4c3c2)CC1
164 to 165 °C | CCNc1nc(Cc2cc(OC)c(OC)c(OC)c2)nc2sc(C#N)c(C)c12
> 285 °C | N#Cc1cc(NC(=O)c2cc3ccccc3s2)ccc1N1CCN(C2CCOCC2)CC1
